Legend:
Assay in all cases: relative viability (nuclei count vs DMSO), 5 days (fraction); higher = more cells survive
Vorinostat + Foretinib = compound: O=C(CCCCCCC(=O)Nc1ccccc1)NO [Vorinostat] + COc1cc2c(Oc3ccc(NC(=O)C4(C(=O)Nc5ccc(F)cc5)CC4)cc3F)ccnc2cc1OCCCN1CCOCC1 [Foretinib] (partner 0.25 µM)
In short: (§1)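 Medians of duplicate plates are given as relative viability. That measure is the nuclei count in treated wells divided by the count in vehicle wells. Counts were taken on 4× images of lung cancer cell lines in 1536-well plates, 5 days after pin-tool dosing the day after seeding with one drug alone or a fixed anchor-drug dose plus five library-drug doses (not always all listed) in √10 steps.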

Vorinostat + Bortezomib = compound: O=C(CCCCCCC(=O)Nc1ccccc1)NO [Vorinostat] + CC(C)C[C@H](NC(=O)[C@H](Cc1ccccc1)NC(=O)c1cnccn1)B(O)O [Bortezomib] (partner 0.002 µM)
In short: as §1

Vorinostat + Pictilisib = compound: O=C(CCCCCCC(=O)Nc1ccccc1)NO [Vorinostat] + CS(=O)(=O)N1CCN(Cc2cc3nc(-c4cccc5[nH]ncc45)nc(N4CCOCC4)c3s2)CC1 [Pictilisib] (partner 1 µM)
In short: as §1

Vorinostat + Linsitinib = compound: O=C(CCCCCCC(=O)Nc1ccccc1)NO [Vorinostat] + C[C@]1(O)C[C@@H](c2nc(-c3ccc4ccc(-c5ccccc5)nc4c3)c3c(N)nccn32)C1 [Linsitinib] (partner 1 µM)
In short: as §1

Vorinostat + Crizotinib = compound: O=C(CCCCCCC(=O)Nc1ccccc1)NO [Vorinostat] + C[C@@H](Oc1cc(-c2cnn(C3CCNCC3)c2)cnc1N)c1c(Cl)ccc(F)c1Cl [Crizotinib] (partner 1 µM)
In short: as §1

Vorinostat + Alpelisib = compound: O=C(CCCCCCC(=O)Nc1ccccc1)NO [Vorinostat] + Cc1nc(NC(=O)N2CCC[C@H]2C(N)=O)sc1-c1ccnc(C(C)(C)C(F)(F)F)c1 [Alpelisib] (partner 2 µM)
In short: as §1

Vorinostat + Navitoclax = compound: O=C(CCCCCCC(=O)Nc1ccccc1)NO [Vorinostat] + CC1(C)CCC(c2ccc(Cl)cc2)=C(CN2CCN(c3ccc(C(=O)NS(=O)(=O)c4ccc(N[C@H](CCN5CCOCC5)CSc5ccccc5)c(S(=O)(=O)C(F)(F)F)c4)cc3)CC2)C1 [Navitoclax] (partner 0.5 µM)
In short: as §1

Vorinostat + Lapatinib = compound: O=C(CCCCCCC(=O)Nc1ccccc1)NO [Vorinostat] + CS(=O)(=O)CCNCc1ccc(-c2ccc3ncnc(Nc4ccc(OCc5cccc(F)c5)c(Cl)c4)c3c2)o1 [Lapatinib] (partner 2 µM)
In short: as §1

Vorinostat + Olaparib = compound: O=C(CCCCCCC(=O)Nc1ccccc1)NO [Vorinostat] + O=C(c1cc(Cc2n[nH]c(=O)c3ccccc23)ccc1F)N1CCN(C(=O)C2CC2)CC1 [Olaparib] (partner 8 µM)
In short: as §1

Vorinostat = compound: O=C(CCCCCCC(=O)Nc1ccccc1)NO [Vorinostat]
In short: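 Following overnight incubation at 37 °C, lung cancer cell lines in 1536-well plates were pinned with five library-drug doses (not always all listed) in √10 steps on vehicle-anchored plates. The cells then spent 5 days without medium change before a combined fix, permeabilisation and Hoechst stain, 4× imaging and MetaXpress nuclear counts. Viability is the treated-to-vehicle ratio of nuclei, taken as the median across plates. Only plates with control CV below 25% and at least one doubling passed.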

Q: For EBC-1, which relative viability (Vorinostat + Foretinib; first compound 0.253 µM) is on record?
A: 0.117

Q: And the relative viability (Vorinostat + Foretinib; first compound 0.8 µM)?
A: 0.101

Q: And the relative viability (Vorinostat + Foretinib; first compound 2.53 µM)?
A: 0.0655

Q: What about the relative viability (Vorinostat + Foretinib; first compound 8 µM) of the same cell line?
A: 0.044

Q: What about the relative viability (Vorinostat + Bortezomib; first compound 0.253 µM) of the same cell line?
A: 0.376

Q: What about the relative viability (Vorinostat + Bortezomib; first compound 0.8 µM) of the same cell line?
A: 0.325

Q: What about the relative viability (Vorinostat + Bortezomib; first compound 2.53 µM) of the same cell line?
A: 0.124

Q: And the relative viability (Vorinostat + Bortezomib; first compound 8 µM)?
A: 0.0971

Q: And the relative viability (Vorinostat + Pictilisib; first compound 0.253 µM)?
A: 0.32

Q: What about the relative viability (Vorinostat + Pictilisib; first compound 0.8 µM) of the same cell line?
A: 0.203

Q: What about the relative viability (Vorinostat + Pictilisib; first compound 2.53 µM) of the same cell line?
A: 0.1

Q: What about the relative viability (Vorinostat + Pictilisib; first compound 8 µM) of the same cell line?
A: 0.0715

Q: What about the relative viability (Vorinostat + Linsitinib; first compound 0.253 µM) of the same cell line?
A: 0.838

Q: What about the relative viability (Vorinostat + Linsitinib; first compound 0.8 µM) of the same cell line?
A: 0.458

Q: What about the relative viability (Vorinostat + Linsitinib; first compound 2.53 µM) of the same cell line?
A: 0.134

Q: What about the relative viability (Vorinostat + Linsitinib; first compound 8 µM) of the same cell line?
A: 0.0589

Q: What about the relative viability (Vorinostat + Crizotinib; first compound 0.253 µM) of the same cell line?
A: 0.207

Q: And the relative viability (Vorinostat + Crizotinib; first compound 0.8 µM)?
A: 0.224

Q: And the relative viability (Vorinostat + Crizotinib; first compound 2.53 µM)?
A: 0.169

Q: And the relative viability (Vorinostat + Crizotinib; first compound 8 µM)?
A: 0.118

Q: And the relative viability (Vorinostat + Alpelisib; first compound 0.253 µM)?
A: 0.675

Q: And the relative viability (Vorinostat + Alpelisib; first compound 0.8 µM)?
A: 0.65

Q: What about the relative viability (Vorinostat + Alpelisib; first compound 2.53 µM) of the same cell line?
A: 0.143

Q: And the relative viability (Vorinostat + Alpelisib; first compound 8 µM)?
A: 0.0927

Q: And the relative viability (Vorinostat + Navitoclax; first compound 0.253 µM)?
A: 0.376

Q: What about the relative viability (Vorinostat + Navitoclax; first compound 0.8 µM) of the same cell line?
A: 0.215

Q: What about the relative viability (Vorinostat + Navitoclax; first compound 2.53 µM) of the same cell line?
A: 0.126

Q: What about the relative viability (Vorinostat + Navitoclax; first compound 8 µM) of the same cell line?
A: 0.114

Q: What about the relative viability (Vorinostat + Lapatinib; first compound 0.253 µM) of the same cell line?
A: 0.243

Q: What about the relative viability (Vorinostat + Lapatinib; first compound 0.8 µM) of the same cell line?
A: 0.209

Q: What about the relative viability (Vorinostat + Lapatinib; first compound 2.53 µM) of the same cell line?
A: 0.164

Q: What about the relative viability (Vorinostat + Lapatinib; first compound 8 µM) of the same cell line?
A: 0.124

Q: And the relative viability (Vorinostat + Olaparib; first compound 0.253 µM)?
A: 0.681

Q: What about the relative viability (Vorinostat + Olaparib; first compound 0.8 µM) of the same cell line?
A: 0.476

Q: What about the relative viability (Vorinostat + Olaparib; first compound 2.53 µM) of the same cell line?
A: 0.193

Q: What about the relative viability (Vorinostat + Olaparib; first compound 8 µM) of the same cell line?
A: 0.0767

Q: And the relative viability (Vorinostat; 0.253 µM)?
A: 0.913

Q: And the relative viability (Vorinostat; 0.8 µM)?
A: 0.654

Q: And the relative viability (Vorinostat; 2.53 µM)?
A: 0.222

Q: And the relative viability (Vorinostat; 8 µM)?
A: 0.0742
